Measurements from patent US20240218022A1, “ANTI-VISTA MACROCYCLIC PEPTIDES AND COMPOSITIONS” (BRISTOL-MYERS SQUIBB COMPANY, priority 2022, published 2024).
Positions of bridges follow the written chain, without caps; N, C: chain ends. Non-standard residues stand in square brackets, D forms with d. Residues, ends and D or L forms follow the SMILES beside them. Ahp(2) = CCCCC[C@H](N)C(=O)O; NHexGly = CCCCCCNCC(=O)O; Nle = CCCC[C@H](N)C(=O)O; Orn = NCCC[C@H](N)C(=O)O; Dab = NCC[C@H](N)C(=O)O

Molecular target: T1, mouse VISTA (mVISTA) (Mus musculus, UniProt Q9D659)
T1 construct: expressed in transfected cells; host or cells: Human embryonic kidney 293T cells
T1 sequence (Q9D659 33-308): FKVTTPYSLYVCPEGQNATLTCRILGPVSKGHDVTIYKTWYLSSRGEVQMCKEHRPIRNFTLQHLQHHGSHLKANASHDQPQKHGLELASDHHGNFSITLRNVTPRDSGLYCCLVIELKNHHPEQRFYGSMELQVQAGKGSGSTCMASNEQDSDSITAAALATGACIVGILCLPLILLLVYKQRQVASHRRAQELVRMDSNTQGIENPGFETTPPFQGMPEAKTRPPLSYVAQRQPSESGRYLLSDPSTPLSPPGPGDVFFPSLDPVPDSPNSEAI
Experiment: Cell-Based Binding High-Content Assay For mVISTA (HC CBA mVISTA)
Conditions: 293T cells expressing mouse VISTA; competition with biotinylated peptide (2 nM); read-out: HC CBA mVISTA IC50
Procedure, shortened: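 Competition of compound with a biotinylated peptide (final 2 nM, 30 min at RT) for binding to mVISTA on 293T cells, run under no-wash or wash (1 h compound preincubation then removal) formats. Readout by Alexa 647–streptavidin imaging on a high-content platform; four-parameter logistic fit gave IC50.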

IC50 [nM]	Compound
34.5	CCCCCCN1CC(=O)N[C@@H](Cc2ccc(O)cc2)C(=O)N[C@@H](CC(C)C)C(=O)N[C@@H](CC(N)=O)C(=O)N[C@@H](CCCNC(=N)N)C(=O)N[C@@H](CC(C)C)C(=O)N[C@@H](CCCCC)C(=O)N2CCC[C@H]2C(=O)N[C@@H](C(C)C)C(=O)N[C@@H](CCCNC(=N)N)C(=O)N[C@H](C(=O)NCC(=O)O)CSCC(=O)N[C@@H](Cc2ccccc2)C(=O)N[C@@H](Cc2ccc(O)cc2)C(=O)N[C@@H](CC(=O)O)C1=O [Example 1030] ({CH2CO}-FYD[NHexGly]YLNRL[Ahp(2)]PVRCG-OH; thioether N-14)
34.7	CCCCCCN1CC(=O)N[C@@H](Cc2ccc(O)cc2)C(=O)N[C@@H](CCCCC)C(=O)N[C@@H](CC(N)=O)C(=O)N[C@@H](CCCNC(=N)N)C(=O)N[C@@H](CC(C)C)C(=O)N[C@@H](CCCCC)C(=O)N2CCC[C@H]2C(=O)N[C@@H](C(C)C)C(=O)N[C@@H](CO)C(=O)N[C@H](C(=O)NCC(N)=O)CSCC(=O)N[C@@H](Cc2ccccc2)C(=O)N[C@@H](Cc2ccc(O)cc2)C(=O)N[C@@H](CC(=O)O)C1=O [Example 1031] ({CH2CO}-FYD[NHexGly]Y[Ahp(2)]NRL[Ahp(2)]PVSCG-NH2; thioether N-14)
11.1	CCCCCCN1CC(=O)N[C@@H](Cc2ccc(O)cc2)C(=O)N[C@@H](CCCCC)C(=O)N[C@@H](CC(N)=O)C(=O)N[C@@H](C)C(=O)N[C@@H](CC(C)C)C(=O)N[C@@H](CCCCC)C(=O)N2CCC[C@H]2C(=O)N[C@@H](C(C)C)C(=O)N[C@@H](CO)C(=O)N[C@H](C(=O)NCC(N)=O)CSCC(=O)N[C@@H](Cc2ccccc2)C(=O)N[C@@H](Cc2ccc(O)cc2)C(=O)N[C@@H](CC(=O)O)C1=O [Example 1032] ({CH2CO}-FYD[NHexGly]Y[Ahp(2)]NAL[Ahp(2)]PVSCG-NH2; thioether N-14)
16.7	CCCCCCN1CC(=O)N[C@@H](Cc2ccc(O)cc2)C(=O)N[C@@H](CCCC)C(=O)N[C@@H](CC(N)=O)C(=O)N[C@@H](CCCNC(=N)N)C(=O)N[C@@H](CC(C)C)C(=O)N[C@@H](CCCCC)C(=O)N2CCC[C@H]2C(=O)N[C@@H](C(C)C)C(=O)N[C@@H](CO)C(=O)N[C@H](C(=O)NCC(N)=O)CSCC(=O)N[C@@H](Cc2ccccc2)C(=O)N[C@@H](Cc2ccc(O)cc2)C(=O)N[C@@H](CC(=O)O)C1=O [Example 1033] ({CH2CO}-FYD[NHexGly]Y[Nle]NRL[Ahp(2)]PVSCG-NH2; thioether N-14)
3.7	CCCCCCN1CC(=O)N[C@@H](Cc2ccc(O)cc2)C(=O)N[C@@H](CCCCC)C(=O)N[C@@H](CC(N)=O)C(=O)N[C@@H](CCCNC(=N)N)C(=O)N[C@@H](CC(C)C)C(=O)N[C@@H](CCCCC)C(=O)N2CCC[C@H]2C(=O)N[C@@H](C(C)C)C(=O)N[C@@H](CO)C(=O)N[C@H](C(=O)NCC(=O)O)CSCC(=O)N[C@@H](Cc2ccccc2)C(=O)N[C@@H](Cc2ccc(O)cc2)C(=O)N[C@@H](CC(=O)O)C1=O [Example 1034] ({CH2CO}-FYD[NHexGly]Y[Ahp(2)]NRL[Ahp(2)]PVSCG-OH; thioether N-14)
30.4	CCCCCCN1CC(=O)N[C@@H](Cc2ccc(O)cc2)C(=O)N[C@@H](CCCCC)C(=O)N[C@@H](CC(N)=O)C(=O)N[C@@H](CCCCN)C(=O)N[C@@H](CC(C)C)C(=O)N[C@@H](CCCCC)C(=O)N2CCC[C@H]2C(=O)N[C@@H](C(C)C)C(=O)N[C@@H](CO)C(=O)N[C@H](C(=O)NCC(N)=O)CSCC(=O)N[C@@H](Cc2ccccc2)C(=O)N[C@@H](Cc2ccc(O)cc2)C(=O)N[C@@H](CC(=O)O)C1=O [Example 1035] ({CH2CO}-FYD[NHexGly]Y[Ahp(2)]NKL[Ahp(2)]PVSCG-NH2; thioether N-14)
20.1	CCCCCCN1CC(=O)N[C@@H](Cc2ccc(O)cc2)C(=O)N[C@@H](CCCCC)C(=O)N[C@@H](CC(N)=O)C(=O)N[C@@H](CCCN)C(=O)N[C@@H](CC(C)C)C(=O)N[C@@H](CCCCC)C(=O)N2CCC[C@H]2C(=O)N[C@@H](C(C)C)C(=O)N[C@@H](CO)C(=O)N[C@H](C(=O)NCC(N)=O)CSCC(=O)N[C@@H](Cc2ccccc2)C(=O)N[C@@H](Cc2ccc(O)cc2)C(=O)N[C@@H](CC(=O)O)C1=O [Example 1036] ({CH2CO}-FYD[NHexGly]Y[Ahp(2)]N[Orn]L[Ahp(2)]PVSCG-NH2; thioether N-14)
36.4	CCCCCCN1CC(=O)N[C@@H](Cc2ccc(O)cc2)C(=O)N[C@@H](CCCCC)C(=O)N[C@@H](CC(N)=O)C(=O)N[C@@H](CCN)C(=O)N[C@@H](CC(C)C)C(=O)N[C@@H](CCCCC)C(=O)N2CCC[C@H]2C(=O)N[C@@H](C(C)C)C(=O)N[C@@H](CO)C(=O)N[C@H](C(=O)NCC(N)=O)CSCC(=O)N[C@@H](Cc2ccccc2)C(=O)N[C@@H](Cc2ccc(O)cc2)C(=O)N[C@@H](CC(=O)O)C1=O [Example 1037] ({CH2CO}-FYD[NHexGly]Y[Ahp(2)]N[Dab]L[Ahp(2)]PVSCG-NH2; thioether N-14)
38.4	CCCCCCN1CC(=O)N[C@@H](Cc2ccc(O)cc2)C(=O)N[C@@H](CCCCC)C(=O)N[C@@H](CC(=O)O)C(=O)N[C@@H](CCCNC(=N)N)C(=O)N[C@@H](CC(C)C)C(=O)N[C@@H](CCCCC)C(=O)N2CCC[C@H]2C(=O)N[C@@H](C(C)C)C(=O)N[C@@H](CO)C(=O)N[C@H](C(=O)NCC(N)=O)CSCC(=O)N[C@@H](Cc2ccccc2)C(=O)N[C@@H](Cc2ccc(O)cc2)C(=O)N[C@@H](CC(=O)O)C1=O [Example 1038] ({CH2CO}-FYD[NHexGly]Y[Ahp(2)]DRL[Ahp(2)]PVSCG-NH2; thioether N-14)
2.2	CCCCCCN1CC(=O)N[C@@H](Cc2ccc(O)cc2)C(=O)N[C@@H](CCCCC)C(=O)NCC(=O)N[C@@H](CCCNC(=N)N)C(=O)N[C@@H](CC(C)C)C(=O)N[C@@H](CCCCC)C(=O)N2CCC[C@H]2C(=O)N[C@@H](C(C)C)C(=O)N[C@@H](CO)C(=O)N[C@H](C(=O)NCC(N)=O)CSCC(=O)N[C@@H](Cc2ccccc2)C(=O)N[C@@H](Cc2ccc(O)cc2)C(=O)N[C@@H](CC(=O)O)C1=O [Example 1039] ({CH2CO}-FYD[NHexGly]Y[Ahp(2)]GRL[Ahp(2)]PVSCG-NH2; thioether N-14)
5.4	CCCCCCN1CC(=O)N[C@@H](Cc2ccc(O)cc2)C(=O)N[C@@H](CC(C)C)C(=O)N[C@@H](CC(N)=O)C(=O)N[C@@H](CCCNC(=N)N)C(=O)N[C@@H](CC(C)C)C(=O)N[C@@H](CCCCC)C(=O)N2CCC[C@H]2C(=O)N[C@@H](C(C)C)C(=O)N[C@@H](CO)C(=O)N[C@H](C(=O)NCC(N)=O)CSCC(=O)N[C@@H](Cc2ccccc2)C(=O)N[C@@H](Cc2ccc(O)cc2)C(=O)N[C@@H](CC(=O)O)C1=O [Example 1040] ({CH2CO}-FYD[NHexGly]YLNRL[Ahp(2)]PVSCG-NH2; thioether N-14)
24.9	CCCCCCN1CC(=O)N[C@@H](Cc2ccc(O)cc2)C(=O)N[C@@H](CC(C)C)C(=O)N[C@@H](CC(=O)O)C(=O)N[C@@H](CCCNC(=N)N)C(=O)N[C@@H](CC(C)C)C(=O)N[C@@H](CCCCC)C(=O)N2CCC[C@H]2C(=O)N[C@@H](C(C)C)C(=O)N[C@@H](CO)C(=O)N[C@H](C(=O)NCC(N)=O)CSCC(=O)N[C@@H](Cc2ccccc2)C(=O)N[C@@H](Cc2ccc(O)cc2)C(=O)N[C@@H](CC(=O)O)C1=O [Example 1041] ({CH2CO}-FYD[NHexGly]YLDRL[Ahp(2)]PVSCG-NH2; thioether N-14)
36.3	CCCCCCN1CC(=O)N[C@@H](Cc2ccc(O)cc2)C(=O)N[C@@H](CCCCC)C(=O)N[C@@H](C)C(=O)N[C@@H](CCCNC(=N)N)C(=O)N[C@@H](CC(C)C)C(=O)N[C@@H](CCCCC)C(=O)N2CCC[C@H]2C(=O)N[C@@H](C(C)C)C(=O)N[C@@H](CO)C(=O)N[C@H](C(=O)NCC(=O)O)CSCC(=O)N[C@@H](Cc2ccccc2)C(=O)N[C@@H](Cc2ccc(O)cc2)C(=O)N[C@@H](CC(=O)O)C1=O [Example 1042] ({CH2CO}-FYD[NHexGly]Y[Ahp(2)]ARL[Ahp(2)]PVSCG-OH; thioether N-14)
17.7	CCCCCCN1CC(=O)N[C@@H](Cc2ccc(O)cc2)C(=O)N[C@@H](CC(C)C)C(=O)N[C@@H](CC(N)=O)C(=O)N[C@@H](CCCNC(=N)N)C(=O)N[C@@H](CC(C)C)C(=O)N[C@@H](CCCCC)C(=O)N2CCC[C@H]2C(=O)N[C@@H](C(C)C)C(=O)N[C@@H](CO)C(=O)N[C@H](C(=O)NCC(=O)O)CSCC(=O)N[C@@H](Cc2ccccc2)C(=O)N[C@@H](Cc2ccc(O)cc2)C(=O)N[C@@H](CC(=O)O)C1=O [Example 1043] ({CH2CO}-FYD[NHexGly]YLNRL[Ahp(2)]PVSCG-OH; thioether N-14)
21.4	CCCCCCN1CC(=O)N[C@@H](Cc2ccc(O)cc2)C(=O)N[C@@H](CCCCC)C(=O)NCC(=O)N[C@@H](CCCNC(=N)N)C(=O)N[C@@H](CC(C)C)C(=O)N[C@@H](CCCCC)C(=O)N2CCC[C@H]2C(=O)N[C@@H](C(C)C)C(=O)N[C@@H](CO)C(=O)N[C@H](C(=O)NCC(=O)O)CSCC(=O)N[C@@H](Cc2ccccc2)C(=O)N[C@@H](Cc2ccc(O)cc2)C(=O)N[C@@H](CC(=O)O)C1=O [Example 1044] ({CH2CO}-FYD[NHexGly]Y[Ahp(2)]GRL[Ahp(2)]PVSCG-OH; thioether N-14)
14	CCCCCCN1CC(=O)N[C@@H](Cc2ccc(O)cc2)C(=O)N[C@@H](CCCC)C(=O)N[C@@H](CC(N)=O)C(=O)N[C@@H](CCCNC(=N)N)C(=O)N[C@@H](CC(C)C)C(=O)N[C@@H](CCCCC)C(=O)N2CCC[C@H]2C(=O)N[C@@H](C(C)C)C(=O)N[C@@H](CO)C(=O)N[C@H](C(=O)NCC(=O)O)CSCC(=O)N[C@@H](Cc2ccccc2)C(=O)N[C@@H](Cc2ccc(O)cc2)C(=O)N[C@@H](CC(=O)O)C1=O [Example 1046] ({CH2CO}-FYD[NHexGly]Y[Nle]NRL[Ahp(2)]PVSCG-OH; thioether N-14)
